From patent US20260008758A1, “LINEAR DIPEPTIDYL PEPTIDASE 1 INHIBITORS AND USES THEREOF” (Insmed Incorporated, priority 2024, published 2026)
pIC50: −log10 of the molar value.

What was measured:
human DPP1 enzyme = human DPP1 enzyme (Homo sapiens (Human), UniProt P53634); assay: Human DPP1 enzyme IC50 assay; format: biochemical; conditions: recombinant human DPP1, H-Gly-Arg-AMC substrate 400 μM
Summary of the method: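 Fluorogenic readout (350/450 nm, every 5 min over 90 min, 37°C) of H-Gly-Arg-AMC cleavage at 400 μM final substrate. Compounds met activated DPP1 first for a 10-min 37°C pre-incubation in MES buffer pH 6.0 with DTT, 1% DMSO final. Four-parameter sigmoidal fit gave IC50.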

DPP1 in HL-60 cells = DPP1 in HL-60 cells (Homo sapiens (Human), UniProt P53634); assay: DPP1 Cell IC50 assay; format: cell-based; conditions: H-Gly-Phe-AFC substrate, 60 min pre-incubation
DPP1 in HL-60 cells, sequence (P53634 25-134): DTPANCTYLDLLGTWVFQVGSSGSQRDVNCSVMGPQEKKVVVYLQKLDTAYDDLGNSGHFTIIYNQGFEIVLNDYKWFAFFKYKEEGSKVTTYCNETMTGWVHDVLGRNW
DPP1 in HL-60 cells, sequence (P53634 231-394): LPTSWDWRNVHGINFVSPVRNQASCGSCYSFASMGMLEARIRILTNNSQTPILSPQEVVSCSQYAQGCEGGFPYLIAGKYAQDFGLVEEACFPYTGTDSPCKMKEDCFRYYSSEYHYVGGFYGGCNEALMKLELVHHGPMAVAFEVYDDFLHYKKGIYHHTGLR
DPP1 in HL-60 cells, sequence (P53634 395-463): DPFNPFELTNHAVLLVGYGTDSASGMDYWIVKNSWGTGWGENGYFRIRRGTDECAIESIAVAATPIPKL
Summary of the method: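 HL-60 cells (5×10^5 live cells/mL in PBS) were pre-incubated with compound in 0.5% DMSO for 60 min at 37 °C, 5% CO2, with shaking, then given 500 μM H-Gly-Phe-AFC solution for 30 min. Fluorescence was read at 400/505 nm. % inhibition was taken against vehicle wells, and IC50 came from a four-parameter logistic fit.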

active mouse DPP1 enzyme = active mouse DPP1 enzyme (Mus musculus (Mouse), UniProt P97821); assay: Mouse DPP1 enzyme IC50 assay; format: biochemical; conditions: active mouse DPP1, H-Gly-Arg-AMC substrate 400 μM
active mouse DPP1 enzyme, sequence (P97821 25-134): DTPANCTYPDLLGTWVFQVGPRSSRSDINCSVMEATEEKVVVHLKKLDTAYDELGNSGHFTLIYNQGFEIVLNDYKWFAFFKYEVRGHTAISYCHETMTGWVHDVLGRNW
active mouse DPP1 enzyme, sequence (P97821 231-393): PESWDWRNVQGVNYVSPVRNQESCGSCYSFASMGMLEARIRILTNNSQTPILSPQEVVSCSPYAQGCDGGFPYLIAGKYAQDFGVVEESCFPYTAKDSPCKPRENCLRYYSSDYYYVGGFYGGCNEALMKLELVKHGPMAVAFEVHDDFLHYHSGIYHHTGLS
active mouse DPP1 enzyme, sequence (P97821 394-462): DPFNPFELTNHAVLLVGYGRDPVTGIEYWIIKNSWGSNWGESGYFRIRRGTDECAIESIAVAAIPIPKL
Procedure: 25 μL of compound in Assay Buffer plus 5% DMSO was first added to 50 μL of active mouse DPP1 enzyme at a concentration of 62.5 pg/μL and allowed to pre-incubate for 10 minutes at 37° C. after which 50 μL of 1000 μM H-Gly-Arg-AMC substrate (Bachem; St. Torrance, CA) was added, giving final substrate concentration of 400 μM and a final DMSO concentration of 1%. Substrate cleavage was measured for 90 minutes at 37° C., with fluorescence at Excitation/Emission 350/450 nm measured every 5 minutes. DPP1 concentration was interpolated based on its activity relative to a standard curve of recombinant active mouse DPP1 enzyme. IC50 values for each compound were calculated via the XLFit (IDBS Version 5.3.1.3) Add-On to Microsoft Excel using the four parameter fit equation y=(A+((B-A)/(1+((C/x)^D)))), which appears as equation number 205 (4 Parameter Logistic Model or Sigmoidal Dose-Response Model) in XLFit. Default constraints were used for each Parameter.

human DPP1 enzyme, sequence (P53634 25-134): as the sequence (P53634 25-134) above
human DPP1 enzyme, sequence (P53634 231-394): as the sequence (P53634 231-394) above
human DPP1 enzyme, sequence (P53634 395-463): as the sequence (P53634 395-463) above

| SMILES | IC50 (human DPP1 enzyme) [nM] | pIC50 (DPP1 in HL-60 cells) | IC50 (active mouse DPP1 enzyme) [nM] |
| --- | --- | --- | --- |
| Cn1c(=O)oc2ccc(-c3ccc(C[C@@H](C#N)NC(=O)C[C@H](N)Cc4cccs4)cc3)cc21 [Compound 182, (3S)-3-amino-N-[(1S)-1-cyano-2-[4-(3-methyl-2-oxo-2,3-dihydro-1,3-benzoxazol-5-yl)phenyl]ethyl]-4-(thiophen-2-yl)butanamide] | ≥ 15 | ≤ 8.60 | ≥ 20 |
| C=CCC(CN)C(=O)N[C@H](C#N)Cc1ccc(-c2ccc3oc(=O)n(C)c3c2)cc1 (stereo partly drawn) [Compound 167, 2-(aminomethyl)-N-[(1S)-1-cyano-2-[4-(3-methyl-2-oxo-2,3-dihydro-1,3-benzoxazol-5-yl)phenyl]ethyl]pent-4-enamide] | ≥ 15 | ≤ 8.60 | ≥ 20 |
